Results as given in patent US20050038007A1, “Dosage forms of cholesteryl ester transfer protein inhibitors and HMG-CoA reductase inhibitors” (Pfizer Inc, priority 2003, published 2005).

Assay: Aqueous solubility of torcetrapib
Type: physicochemical
Details: water (aqueous), at about 22° C.
Method: The CETP inhibitor may be any compound capable of inhibiting the cholesteryl ester transfer protein. […] Many CETP inhibitors have even lower solubilities (some even less than 0.1 μg/mL), and require dramatic concentration enhancement to be sufficiently bioavailable upon oral dosing for effective plasma concentrations to be reached at practical doses.
CETP inhibitors, in particular torcetrapib, and methods for preparing such compounds are disclosed in detail in U.S. Pat. Nos. 6,197,786 and 6,313,142, in PCT Application Nos. WO 01/40190A1, WO 02/088085A2, and WO 02/088069A2, the disclosures of which are herein incorporated by reference. Torcetrapib has an unusually low solubility in aqueous environments such as the lumenal fluid of the human GI tract. The aqueous solubility of torcetrapib is less than about 0.04 μg/ml. Torcetrapib must be presented to the GI tract in a solubility-improved form in order to achieve a sufficient drug concentration in the GI tract in order to achieve sufficient absorption into the blood to elicit the desired therapeutic effect.

solubility: < 0.04 µg/mL
Structure (SMILES): CCOC(=O)N1c2ccc(C(F)(F)F)cc2[C@@H](N(Cc2cc(C(F)(F)F)cc(C(F)(F)F)c2)C(=O)OC)C[C@H]1CC [Torcetrapib, [2R,4S]-4-[(3,5-bis-trifluoromethyl-benzyl)-methoxycarbonyl-amino]-2-ethyl-6-trifluoromethyl-3,4-dihydro-2H-quinoline-1-carboxylic acid ethyl ester]
